This is an account of results in the SangsterLogP compilation.

The nature of the data set: method code SF-AS, from DOI: 10.1002/jps.2600830428, PMID: 8046619. The conditions noted are these: pH 7.4.
Take `O=c1nc(N=CN2CCOCC2)ccn1[C@@H]1O[C@H](CO)[C@@H](O)[C@@H]1O`: the logD is -1.66. `O=c1nc(N=CN2CCCC2)ccn1[C@@H]1O[C@H](CO)[C@@H](O)[C@@H]1O` displayed a logD of -1.15.

On to `O=c1nc(/N=C/N2CCOCC2)ccn1[C@H]1C[C@H](O)[C@@H](CO)O1`, for which the logD is -1.54.

Usually logD stands for the decadic logarithm of the distribution of all forms, ionised or not, between an organic phase and buffer at a given pH.
